{"source": "patent US7674464B2", "about": "“Intracellular interleukin-1 receptor antagonists” (The University of Tennessee Research Foundation, priority 2004, dated 2010)", "key": {"TIMP-1": {"tested_on": "TIMP-1", "assay": "IL-1β-stimulated TIMP-1 production by fibroblasts, ELISA", "format": "cell-based, human", "description": "TIMP-1 was measured in the same fibroblast culture supernatants as in FIG. 21.\n(§1) Furthermore, the effect of the IL-1ra peptides on the stimulation of MMP-1 and TIMP expression was examined. Briefly, fibroblasts were seeded in wells of Flacon 3008 multiwell plates (5×10^4 cells/500 μl Maintenance Medium). After 72 h culture, the medium was removed from each well and replaced with Maintenance Medium (450 μl) containing 5% FCS and 25 μl of IL-1ra peptides or hrsIL-1ra peptide being tested. Two hrs later 25 μl IL-1β (100 pg/ml) was added to appropriate wells. Plates were incubated for 48 h, at which time medium was collected from each well. Levels of TIMP and collagenase produced by fibroblasts during culture were measured by specific ELISA techniques as previously described (Postlethwaite et al., 1988)."}, "collagenase (MMP-1) [1]": {"tested_on": "collagenase (MMP-1)", "assay": "IL-1β-induced collagenase (MMP-1) production by dermal fibroblasts, ELISA", "format": "cell-based, human", "description": "Confluent fibroblast monolayer cultures were treated for 2 hr with IL-1ra peptides and cultured for 48 h with hrIL-1β. Collagenase protein was measured in culture supernatants by ELISA.\nas §1"}, "D10.G4.1 T cells": {"tested_on": "D10.G4.1 T cells", "assay": "lymphocyte mitogenesis assay: IL-1α-stimulated proliferation of D10.G4.1 T cells", "format": "cell-based, murine", "settings": "peptides added 1 hour before IL-1α (10 ng/ml)", "description": "An hour prior to the addition of hrIL-1α, the IL-1ra peptides were added to cultures of murine T cell line, D10.G4.1 and ^3H thymidine incorporation was quantitated.\nSince sIL-1ra blocks IL-1 stimulation of T cells, the abilities of the IL-1ra peptides of Table 5 to inhibit mitogenesis of murine D10.G4.1 cells in response to IL-1α were assessed by performing lymphocyte mitogenesis assay. Briefly, different concentrations of IL-1ra peptides were added to culture 1 hour prior to addition of IL-1α (10 ng/ml). The results are expressed as mean cpm of quadruplicate determinations corrected for background. The standard error of the mean for each sample tested was 10% or less. None of the peptides disclosed in Table 5 inhibited IL-1α stimulation of proliferation of D10.G4.1 T cells (FIG. 20). Further, the uptake of ^125I IL-1ra peptide with SEQ ID NO: 13 by dermal fibroblasts was investigated. Briefly, the SEQ ID NO: 13 peptide (25 μg in 125 μl 0.125 sodium borate buffer pH 8.5) was labeled with ^125I-Bolton Hunter Reagent (New England Nuclear, Boston, Mass.) according to manufacturer's instructions. The labeled IL-1ra was separated from the free ^125I by passage over a Bio-Gel P-2 (BioRad, Richmond, Calif.) 1 ml column equilibrated and eluted with phosphate buffered saline containing 0.1% gelatin. […]"}, "ICAM-1": {"tested_on": "ICAM-1", "assay": "IL-1β-induced ICAM-1 expression on human dermal fibroblasts", "format": "cell-based", "description": "Confluent fibroblast monolayers were cultured for […] with IL-1ra peptides and then for 24 h with IL-1β. ICAM expression on fibroblast monolayers was then quantitated.\nFurther, since IL-1 upregulates ICAM-1 expression on a variety of cells including fibroblasts, the ability of the peptides disclosed in Table 5 to inhibit IL-1β induced ICAM-1 expression on human dermal fibroblasts was examined. Briefly, fibroblasts were seeded in wells of flat bottom 96 well tissue culture plates (NUNC, Roskilde, Denmark) (1×10^4 cells […] Maintenance Medium). After 72 h, the culture medium was removed from each well and replaced with 450 μl Maintenance Medium and 25 μl of IL-1ra peptides or hrsIL-1ra (100 ng/ml). After incubation at 37° C. for 2 h in 5% CO2 humidified atmosphere, 25 μl hrIL-1β (100 pg/mL final concentration) was added to wells containing IL-1ra peptides or hrsIL-1ra. Wells with 50 μl PBS served as a negative control. PBS 25 μl+[…] IL-1β (100 pg/ml final concentration) was a positive control. Plates were incubated an additional 24 h, after which medium was removed from each well and the cells were fixed with 100 μl of 3.8% formaldehyde in PBS for 5-7 minutes at room temperature. The cells were rinsed twice with culture medium, and 100 μl of monoclonal mouse anti-ICAM-1 antibody (AMAC, Inc., Westbrook, Me.; diluted 0.2 mg original stock diluted 1:800 in culture medium) was applied to designated wells. The plate was then incubated at 4° C. overnight.\nAfter washing the plate thrice with 300 μl of 0.1% BSA-PBS, 200 μl of secondary antibody, goat anti-mouse IgG antibody-conjugated to horseradish peroxidase (Pierce, Rockford, Ill.) diluted 1:4000 in 1% BSA-PBS, was added to each well and the plate was incubated at room temperature for 2 h. After a final wash with 0.1% BSA-PBS, 100 μl of peroxidase substrate solution (Pierce) containing 2,2′-azino-di[3-ethylbenzthiazoline sulfonate] (Kirkegaard & Perry Laboratories, Inc., Gaithersburg, Md.) was added to each well. This was followed 30-40 minutes later by reading of the optical density (OD) at 405 nm by a Microplate Autoreader (Bio-Tek Instruments, Inc., Winooski, Vt.). The color solution was discarded and the plate was then washed twice with PBS. Finally, the cells were digested with 30 μl of 0.6 M NaOH overnight, and the amount of protein in each well was determined using BCA assay reagents (Pierce). ICAM-1 expression was presented as OD/mg protein. […] The hrsIL-1ra (100 ng/mL) inhibited IL-1β-induced ICAM-1 expression to 6 O.D. units/mg of cellular protein."}, "PGE2": {"tested_on": "PGE2", "assay": "IL-1β-induced fibroblast PGE2 synthesis, RIA", "format": "cell-based, human", "description": "Confluent fibroblast monolayer cultures were preincubated with IL-1ra peptides for 2 h and then with hrIL-1β for 24 h. PGE2 was quantitated by RIA.\nAdditionally, since IL-1β stimulates PGE2 synthesis by fibroblasts, the effect of peptides disclosed in Table 5 on the PGE2 production by fibroblasts was examined. Briefly, Maintenance Medium in multi-well plates comprising the fibroblasts that were grown to confluency for 3 days was changed to Maintenance Medium containing 2.5% FCS (450 μl/well). This was followed by addition of IL-1ra peptides or hrsIL-1ra (25 μl aliquots) to culture wells 2 hrs prior to addition of hrIL-1β (100 pg/ml). After an additional 24 h incubation, PGE2 was measured in these culture supernatants. PGE2 was extracted from fibroblast culture supernatants and measured by a previously described radioimmunoassay technique (Ballou et al., 1990; Postlethwaite et al., 1989). It was observed that IL-1ra peptide with SEQ ID NO: 15 inhibited IL-1-induced fibroblast synthesis of PGE2 (FIG. 23). Recombinant IL-1ra (100 ng/ml) inhibited IL-1-induced PGE2 production to a level of 150 pg/ml."}, "collagenase (MMP-1) [2]": {"tested_on": "collagenase (MMP-1)", "assay": "IL-1β-induced collagenase (MMP-1) production by dermal fibroblasts, ELISA", "format": "cell-based, human", "settings": "same wells as collagenase assay"}, "type I IL-1R [3]": {"target": "T1, type I IL-1R (Mus musculus, UniProt P13504)", "T1 sequence (P13504 20-576)": "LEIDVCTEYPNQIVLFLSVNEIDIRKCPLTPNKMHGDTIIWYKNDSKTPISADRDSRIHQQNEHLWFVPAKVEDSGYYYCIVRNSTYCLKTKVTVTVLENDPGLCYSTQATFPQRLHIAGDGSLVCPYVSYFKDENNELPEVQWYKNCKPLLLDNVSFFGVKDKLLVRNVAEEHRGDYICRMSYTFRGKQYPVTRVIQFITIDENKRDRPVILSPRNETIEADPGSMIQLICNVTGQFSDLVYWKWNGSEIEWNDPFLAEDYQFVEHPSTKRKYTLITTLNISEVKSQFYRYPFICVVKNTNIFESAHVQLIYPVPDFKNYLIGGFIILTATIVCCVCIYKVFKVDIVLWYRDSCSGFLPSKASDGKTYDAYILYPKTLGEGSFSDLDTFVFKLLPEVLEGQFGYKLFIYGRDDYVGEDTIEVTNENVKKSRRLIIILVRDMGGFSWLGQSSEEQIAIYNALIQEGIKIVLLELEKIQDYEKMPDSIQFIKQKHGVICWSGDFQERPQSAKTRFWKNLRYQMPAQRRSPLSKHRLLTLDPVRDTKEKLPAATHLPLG", "assay": "[125I] IL-1beta competitive binding to type I IL-1 receptors on EL4 6.1 cells", "parameters": "IL-1beta from type I IL-1Rs on the EL46.1 cells; endogenous in cells; host or cells: EL4 6.1 (murine T cell line); species or system murine", "description": "IL-1 beta for binding to type I IL-1 receptors on murine cells. EL46.1 cells were incubated at 4° C. in presence of the sodium azide for 2 hr with and without each of the IL-1ra peptides or with soluble human recombinant interleukin 1ra (shrIL-1ra) as a control. Cells were then incubated with [^125I]hrIL-1, transferred to microfuge tubes containing phthalolate oil, centrifuged and free and bound radioactivity determined. Non-specific binding was determined in the presence of 100× excess concentration of cold hrIL-1 beta.\nNone of the peptides were able to displace [^125I] IL-1beta from type I IL-1Rs on the EL46.1 cells (FIG. 19). Additionally a competitive binding assay was performed in which the IL-1ra peptides were added to the EL4 cells at the same time [^125I] was added. No displacement of [^125I] IL-1 beta was observed from its receptors in the presence of these IL-1ra peptides."}, "type I IL-1R [4]": {"target": "T1, type I IL-1R", "parameters": "host or cells: EL4.IL-2 murine thymoma cells", "settings": "murine thymoma cell line EL4.IL-2; read-out: affinity (Kp) for type I IL-1R; cited from earlier work"}, "[5]": {"settings": "listed as 60-90 (SEQ ID NO: 15)"}}, "note": "Where two headings read alike, the source gives them in different places.", "data": [{"substance": "IHGGKMCLSCVKSGDETRLQLEAVNITDLSE (IL-1ra peptides representing the mature form of human sIL-1ra) [IL-1ra 60-90, synthetic peptide, residues 60-90 of IL-1ra]", "values": [{"measurement": "inhibition of IL-1β-induced TIMP-1 production by fibroblasts", "setting": "TIMP-1", "result": "failed to block"}, {"measurement": "inhibition of IL-1-induced collagenase production by fibroblasts", "setting": "collagenase (MMP-1) [1]", "result": "failed to block"}, {"measurement": "inhibition of IL-1-stimulated proliferation of D10.G4.1 T cells", "setting": "D10.G4.1 T cells", "result": "did not block"}, {"measurement": "inhibition of IL-1β-induced ICAM-1 expression on fibroblasts", "setting": "ICAM-1; [5]", "result": "blocked"}, {"measurement": "inhibition of IL-1β-induced ICAM-1 expression on fibroblasts", "setting": "ICAM-1; listed as IL-1ra peptide 60-90", "result": "inhibited"}, {"measurement": "inhibition of IL-1β-induced ICAM-1 expression on fibroblasts", "setting": "ICAM-1; listed as SEQ ID NO: 15", "result": "inhibited the ICAM-1 expression on cultured fibroblasts in a dose dependent manner"}, {"measurement": "inhibition of IL-1-induced fibroblast PGE2 synthesis", "setting": "PGE2; [5]", "result": "blocked"}, {"measurement": "inhibition of IL-1-induced fibroblast PGE2 synthesis", "setting": "PGE2; listed as IL-1ra peptide 60-90", "result": "inhibited"}, {"measurement": "inhibition of IL-1-induced fibroblast PGE2 synthesis", "setting": "PGE2; listed as SEQ ID NO: 15", "result": "inhibited"}]}, {"substance": "RPSGRKSSKMQAFRIWDVNQKTFYLRNNQLVAGYL (IL-1ra peptides representing the mature form of human sIL-1ra) [IL-1ra 1-35, synthetic peptide, residues 1-35 of mature human sIL-1ra]", "values": [{"measurement": "fibroblast growth (counting trypsinized cells in hemocytometer)", "setting": "collagenase (MMP-1) [2]", "result": "unchanged"}, {"measurement": "concentrations at which IL-1 induced collagenase synthesis was inhibited", "setting": "collagenase (MMP-1) [1]; dermal fibroblasts, FIG. 21", "result": "≥ 10^−10 M"}, {"measurement": "inhibition of IL-1-induced collagenase production by fibroblasts", "setting": "collagenase (MMP-1) [1]; listed as 1-35 (SEQ ID NO: 13)", "result": "blocked"}, {"measurement": "inhibition of IL-1-induced collagenase production by fibroblasts", "setting": "collagenase (MMP-1) [1]; listed as IL-1ra peptide 1-35", "result": "inhibited"}, {"measurement": "competition with / displacement of [125I] IL-1beta from type I IL-1Rs", "setting": "type I IL-1R [3]; EL4 6.1 cells", "result": "did not competitively inhibit the binding"}]}, {"substance": "hrsIL-1ra: soluble human recombinant interleukin 1ra, used as control [reference compound]", "values": [{"measurement": "Kd", "setting": "type I IL-1R [4]", "result": 0.15, "unit": "nM"}, {"measurement": "level to which IL-1β-induced ICAM-1 expression was inhibited", "setting": "ICAM-1; 100 ng/mL", "result": "6 O.D. units/mg of cellular protein"}, {"measurement": "level to which IL-1-induced PGE2 production was inhibited", "setting": "PGE2; 100 ng/ml", "result": 150, "unit": "pg/mL"}, {"measurement": "displacement of [125I] IL-1 beta from EL4 cells", "setting": "type I IL-1R [3]; 100× excess", "result": "greater than 90%"}]}]}
